Measured values from patent US9333272B2, “Fibrin binding peptide conjugates for diagnostic and therapeutic applications” (Bracco Imaging SpA, priority 2006, dated 2016).

What was measured:
[1] = molecular target: T1, fibrin in tumor, TRAMP prostate tumor (Mus musculus, UniProt E9PV24+Q8K0E8+Q8VCM7); assay: In vivo MRI, transgenic adenocarcinoma mouse prostate model (TRAMP), Example 17; conditions: 100 μmol/kg iv; control
T1 construct: from tissue; host or cells: tumor stroma of living mice (BALB-neuT mammary tumor, TRAMP prostate tumor, Neuro-2a neuroblastoma in A/J mice)
T1 sequence (E9PV24 20-557 isoform E9PV24-2 limits assumed): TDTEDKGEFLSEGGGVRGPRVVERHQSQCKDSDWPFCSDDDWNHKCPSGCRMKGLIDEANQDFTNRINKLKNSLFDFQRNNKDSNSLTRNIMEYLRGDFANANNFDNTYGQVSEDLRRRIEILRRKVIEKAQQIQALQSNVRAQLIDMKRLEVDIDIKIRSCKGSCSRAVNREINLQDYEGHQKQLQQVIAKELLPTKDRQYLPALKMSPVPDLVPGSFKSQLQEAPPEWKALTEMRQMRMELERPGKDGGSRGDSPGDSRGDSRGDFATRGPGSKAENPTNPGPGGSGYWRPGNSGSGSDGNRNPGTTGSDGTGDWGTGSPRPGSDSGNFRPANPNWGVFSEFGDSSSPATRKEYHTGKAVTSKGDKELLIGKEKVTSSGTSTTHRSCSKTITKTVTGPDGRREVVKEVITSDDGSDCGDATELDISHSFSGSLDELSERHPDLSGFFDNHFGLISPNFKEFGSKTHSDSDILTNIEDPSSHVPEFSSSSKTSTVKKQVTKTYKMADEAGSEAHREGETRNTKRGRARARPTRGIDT
T1 sequence (Q8K0E8 35-481 limits assumed): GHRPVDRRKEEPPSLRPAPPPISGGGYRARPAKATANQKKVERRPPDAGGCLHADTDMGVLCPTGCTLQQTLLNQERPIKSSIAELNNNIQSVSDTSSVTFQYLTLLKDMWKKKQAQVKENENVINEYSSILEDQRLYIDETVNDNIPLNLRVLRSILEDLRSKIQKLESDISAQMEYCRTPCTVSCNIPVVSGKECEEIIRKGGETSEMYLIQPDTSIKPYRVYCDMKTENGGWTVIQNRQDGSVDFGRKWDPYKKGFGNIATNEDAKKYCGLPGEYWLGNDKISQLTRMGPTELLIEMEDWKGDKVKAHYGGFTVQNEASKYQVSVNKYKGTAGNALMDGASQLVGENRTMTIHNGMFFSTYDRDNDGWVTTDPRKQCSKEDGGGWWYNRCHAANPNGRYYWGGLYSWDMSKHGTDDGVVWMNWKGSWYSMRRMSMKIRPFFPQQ
T1 sequence (Q8VCM7 26-436): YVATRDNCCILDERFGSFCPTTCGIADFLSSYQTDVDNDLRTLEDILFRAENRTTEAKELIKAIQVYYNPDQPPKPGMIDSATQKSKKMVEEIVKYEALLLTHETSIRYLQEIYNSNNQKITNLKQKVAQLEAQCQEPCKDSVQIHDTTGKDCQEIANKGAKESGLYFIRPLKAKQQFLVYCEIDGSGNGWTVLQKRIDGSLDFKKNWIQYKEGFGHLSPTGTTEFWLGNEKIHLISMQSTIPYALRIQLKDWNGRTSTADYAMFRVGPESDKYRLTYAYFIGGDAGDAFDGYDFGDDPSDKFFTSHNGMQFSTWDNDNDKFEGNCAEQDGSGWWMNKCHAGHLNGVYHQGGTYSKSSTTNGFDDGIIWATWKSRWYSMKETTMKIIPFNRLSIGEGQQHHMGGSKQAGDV
Procedure: This test has been performed in a transgenic adenocarcinoma mouse prostate model (TRAMP) developed by introducing a PB promoter—SV40 T antigen fusion transgene (PB-Tag) into the germ line of C57BL/6 inbred mice.
Two TRAMP mice were treated with ProHance® at 100 μmol/kg iv (control), and the day after with Chelate Complex 2 or with Chelate Complex 5 at 25 μmol/kg iv. T1 weighted SE images were acquired pre- and post-contrast injection and the kinetic of enhancement in the tumor was followed up to 3 h post-test compound administration.

[2] = molecular target: T2, fibrin in tumor, mammary tumor mouse model (BALB-neuT) (Mus musculus, UniProt E9PV24+Q8K0E8+Q8VCM7); assay: In vivo MRI, mammary tumor mouse model (BALB-neuT), Example 16; conditions: 100 μmol/kg; reference compound
T2 construct: from tissue; host or cells: tumor stroma of living mice (BALB-neuT mammary tumor, TRAMP prostate tumor, Neuro-2a neuroblastoma in A/J mice)
T2 sequence (E9PV24 20-557 isoform E9PV24-2 limits assumed): T1 sequence (E9PV24 20-557 isoform E9PV24-2 limits assumed)
T2 sequence (Q8K0E8 35-481 limits assumed): T1 sequence (Q8K0E8 35-481 limits assumed)
T2 sequence (Q8VCM7 26-436): T1 sequence (Q8VCM7 26-436)
Procedure: The test has been performed in a mammary tumor mouse model (BALB-neuT). Mice were treated with Chelate Complex 2 of the invention, 25 μmol/kg, injected iv, and with ProHance® at 100 μmol/kg. Signal enhancement of the tumor was followed up to 3 h after contrast administration.
Successive T1 weighted SE images were acquired pre- and post-injection of the test compounds and some examples are reported in FIGS. 6 and 7. Images are related to successive slices from the same mouse acquired at different time points post contrast. In particular, FIG. 6 includes images post-injection of chelate Complex 2 at 25 μmol/kg (arrows indicate tumor) and FIG. 7 includes analogous images post administration of ProHance®.

Which “Tumor signal enhancement (T1 weighted MRI), in words” value [1] does the source give for CC(O)CN1CCN(CC(=O)[O-])CCN(CC(=O)[O-])CCN(CC(=O)[O-])CC1.[Gd+3] (centres unmarked) [ProHance®] here?
Its value is “very weak signal enhancement”.

And the “Tumor signal enhancement (T1 weighted MRI), in words” value [2]?
The value was “signal distribution only on the border and no signal enhancement inside the tumors after 55 min”.
